Data reported in PMC9557039 (iScience, 2022).

Target: UGT720-269-1 (Siraitia grosvenorii, UniProt P0DO66)
Details: 1 mM UDPG, 10 mM MgCl2, 40 °C; crude enzyme in screening assay

UGT720-269-1, sequence (P0DO66 whole entry): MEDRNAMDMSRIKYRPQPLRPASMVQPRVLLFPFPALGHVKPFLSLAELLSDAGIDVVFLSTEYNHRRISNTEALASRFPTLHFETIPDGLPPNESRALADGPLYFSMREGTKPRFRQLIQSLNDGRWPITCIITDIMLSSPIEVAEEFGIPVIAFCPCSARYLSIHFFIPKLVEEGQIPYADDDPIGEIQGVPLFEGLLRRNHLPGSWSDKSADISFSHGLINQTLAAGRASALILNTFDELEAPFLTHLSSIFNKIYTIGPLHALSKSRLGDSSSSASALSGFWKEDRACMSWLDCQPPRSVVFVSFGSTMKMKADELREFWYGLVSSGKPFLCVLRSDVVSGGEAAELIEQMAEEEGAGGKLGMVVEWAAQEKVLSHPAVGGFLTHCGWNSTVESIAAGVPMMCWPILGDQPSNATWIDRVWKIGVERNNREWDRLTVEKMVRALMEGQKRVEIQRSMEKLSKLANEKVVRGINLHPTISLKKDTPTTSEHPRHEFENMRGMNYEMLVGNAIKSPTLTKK

C[C@H](CC[C@@H](O)C(C)(C)O)[C@H]1CC[C@@]2(C)[C@@H]3CC=C4[C@@H](CC[C@H](O)C4(C)C)[C@]3(C)[C@H](O)C[C@]12C [mogrol]
HPLC product analysis: low catalytic property of UGT720-269-1 in the sequential glycosylation of mogrol to IIE
